{"source": "patent US8309351B2", "about": "“Methods of identifying agents that inhibit angiogenesis” (Bionomics Limited, priority 2007, dated 2012)", "origin": "cited, not measured here", "test_system": "lung cancer cells", "details": "knock-down of beta III tubulin in lung cancer cells", "data": [{"smiles": "CC(=O)O[C@H]1C(=O)[C@@]2(C)[C@H]([C@H](OC(=O)c3ccccc3)[C@]3(O)C[C@H](OC(=O)[C@H](O)[C@@H](NC(=O)c4ccccc4)c4ccccc4)C(C)=C1C3(C)C)[C@]1(OC(C)=O)CO[C@@H]1C[C@@H]2O", "note": "[paclitaxel]", "values": [{"measurement": "increase in paclitaxel sensitivity", "result": 39, "unit": "%"}]}]}
